PubChem BioAssay AID1918935 (Molecular Pharmacology Branch, DTP, NCI, 2023)

Tested on: 324938-238-R-J1-PDC complex spheroid viability
Assay: Anticancer human tumor 324938-238-R-J1-PDC patient-derived bladder carcinoma cell line growth inhibition
Details: for IC50: curve of first compound; for viability, T/C: stronger effect = lower value
Summary of the method: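 Drug combinations with the LSD1 inhibitor iadademstat tested on tumor cells co-cultured as spheroids with endothelial cells and mesenchymal stem cells. Concentrations descended in half-log increments from clinical Cmax or 10 microM.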

[1] = second compound 0.1 µM, first compound 0.0316 µM
[2] = second compound 0.1 µM, first compound 0.1 µM
[3] = second compound 0.1 µM, first compound 0.316 µM
[4] = second compound 0.1 µM, first compound 1 µM
[5] = second compound 0.1 µM, first compound 3.16 µM
[6] = second compound 0.1 µM, first compound 10 µM
[7] = second compound 0.316 µM, first compound 0.0316 µM
[8] = second compound 0.316 µM, first compound 0.1 µM
[9] = second compound 0.316 µM, first compound 0.316 µM
[10] = second compound 0.316 µM, first compound 1 µM
[11] = second compound 0.316 µM, first compound 3.16 µM
[12] = second compound 0.316 µM, first compound 10 µM
[13] = second compound 1 µM, first compound 0.0316 µM
[14] = second compound 1 µM, first compound 0.1 µM
[15] = second compound 1 µM, first compound 0.316 µM
[16] = second compound 1 µM, first compound 1 µM
[17] = second compound 1 µM, first compound 3.16 µM
[18] = second compound 1 µM, first compound 10 µM
[19] = second compound 3.16 µM, first compound 0.0316 µM
[20] = second compound 3.16 µM, first compound 0.1 µM
[21] = second compound 3.16 µM, first compound 0.316 µM
[22] = second compound 3.16 µM, first compound 1 µM
[23] = second compound 3.16 µM, first compound 3.16 µM
[24] = second compound 3.16 µM, first compound 10 µM
[25] = second compound 10 µM, first compound 0.0316 µM
[26] = second compound 10 µM, first compound 0.1 µM
[27] = second compound 10 µM, first compound 0.316 µM
[28] = second compound 10 µM, first compound 1 µM
[29] = second compound 10 µM, first compound 3.16 µM
[30] = second compound 10 µM, first compound 10 µM
[31] = second compound 0.1 µM, first compound 0.00316 µM
[32] = second compound 0.1 µM, first compound 0.01 µM
[33] = second compound 0.316 µM, first compound 0.00316 µM
[34] = second compound 0.316 µM, first compound 0.01 µM
[35] = second compound 1 µM, first compound 0.00316 µM
[36] = second compound 1 µM, first compound 0.01 µM
[37] = second compound 3.16 µM, first compound 0.00316 µM
[38] = second compound 3.16 µM, first compound 0.01 µM
[39] = second compound 10 µM, first compound 0.00316 µM
[40] = second compound 10 µM, first compound 0.01 µM
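Note: spheroids also contain HUVEC and human MSCs and agents combined with iadademstat; spheroids exposed to agents for 7 days before readout.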

Compound: CC(C)c1c(-c2ccccc2)nc2c(C#N)c[nH]n2c1=O + NC1CCC(NC2CC2c2ccccc2)CC1
- IC50 (second compound 0.1 µM): > 10000 nM
- IC50 (second compound 0.316 µM): > 10000 nM
- IC50 (second compound 1 µM): > 10000 nM
- IC50 (second compound 3.16 µM): > 10000 nM
- IC50 (second compound 10 µM): > 10000 nM
- viability, T/C [1]: 69.7%
- viability, T/C [2]: 90%
- viability, T/C [3]: 85.2%
- viability, T/C [4]: 89.2%
- viability, T/C [5]: 82.2%
- viability, T/C [6]: 74.6%
- viability, T/C [7]: 83%
- viability, T/C [8]: 84.1%
- viability, T/C [9]: 84.4%
- viability, T/C [10]: 84.8%
- viability, T/C [11]: 81.4%
- viability, T/C [12]: 78.7%
- viability, T/C [13]: 87%
- viability, T/C [14]: 90%
- viability, T/C [15]: 78.2%
- viability, T/C [16]: 84.9%
- viability, T/C [17]: 81.6%
- viability, T/C [18]: 80.9%
- viability, T/C [19]: 72.8%
- viability, T/C [20]: 78.9%
- viability, T/C [21]: 87.7%
- viability, T/C [22]: 80.6%
- viability, T/C [23]: 80.1%
- viability, T/C [24]: 74.3%
- viability, T/C [25]: 66.5%
- viability, T/C [26]: 70.7%
- viability, T/C [27]: 75.9%
- viability, T/C [28]: 75.1%
- viability, T/C [29]: 65.6%
- viability, T/C [30]: 77.9%

Compound: CC1COCCN1c1cc(-c2ccnn2C)c2ccnc(-c3ccn[nH]3)c2n1 (stereo not given) + NC1CCC(NC2CC2c2ccccc2)CC1
- IC50 (second compound 0.1 µM): 26 nM
- IC50 (second compound 0.316 µM): 40.4 nM
- IC50 (second compound 1 µM): 36.3 nM
- IC50 (second compound 3.16 µM): 25.8 nM
- IC50 (second compound 10 µM): 21.6 nM
- viability, T/C [31]: 88%
- viability, T/C [32]: 64.2%
- viability, T/C [1]: 49%
- viability, T/C [2]: 31.5%
- viability, T/C [3]: 17.3%
- viability, T/C [4]: 13.4%
- viability, T/C [33]: 76.9%
- viability, T/C [34]: 80.9%
- viability, T/C [7]: 52.5%
- viability, T/C [8]: 31.2%
- viability, T/C [9]: 17.4%
- viability, T/C [10]: 15.2%
- viability, T/C [35]: 80.8%
- viability, T/C [36]: 73.2%
- viability, T/C [13]: 51.8%
- viability, T/C [14]: 31.2%
- viability, T/C [15]: 18.7%
- viability, T/C [16]: 14.8%
- viability, T/C [37]: 72.8%
- viability, T/C [38]: 59.6%
- viability, T/C [19]: 49.7%
- viability, T/C [20]: 31.8%
- viability, T/C [21]: 19.9%
- viability, T/C [22]: 15.5%
- viability, T/C [39]: 72.3%
- viability, T/C [40]: 60.3%
- viability, T/C [25]: 44.7%
- viability, T/C [26]: 30.8%
- viability, T/C [27]: 20.1%
- viability, T/C [28]: 14.3%

Compound: COc1ccc([C@@H](O)c2cc(-c3ncnc4cc(N5CCOCC5)ccc34)c(F)cc2Cl)nn1 + NC1CCC(NC2CC2c2ccccc2)CC1
- IC50 (second compound 0.1 µM): 1750 nM
- IC50 (second compound 0.316 µM): 1870 nM
- IC50 (second compound 1 µM): 1330 nM
- IC50 (second compound 3.16 µM): 944 nM
- IC50 (second compound 10 µM): 1090 nM
- viability, T/C [1]: 81.4%
- viability, T/C [2]: 70.8%
- viability, T/C [3]: 63.3%
- viability, T/C [4]: 61.1%
- viability, T/C [5]: 42.8%
- viability, T/C [6]: 26.8%
- viability, T/C [7]: 80.8%
- viability, T/C [8]: 76.7%
- viability, T/C [9]: 61.4%
- viability, T/C [10]: 58%
- viability, T/C [11]: 47.7%
- viability, T/C [12]: 28.9%
- viability, T/C [13]: 72.9%
- viability, T/C [14]: 73.4%
- viability, T/C [15]: 65.2%
- viability, T/C [16]: 50.3%
- viability, T/C [17]: 42.6%
- viability, T/C [18]: 28.5%
- viability, T/C [19]: 70%
- viability, T/C [20]: 78%
- viability, T/C [21]: 59.3%
- viability, T/C [22]: 48.4%
- viability, T/C [23]: 38.3%
- viability, T/C [24]: 26.4%
- viability, T/C [25]: 64.8%
- viability, T/C [26]: 76.5%
- viability, T/C [27]: 61.6%
- viability, T/C [28]: 50.2%
- viability, T/C [29]: 37%
- viability, T/C [30]: 26%

Compound: O=C(C=Cn1cnc(-c2cc(C(F)(F)F)cc(C(F)(F)F)c2)n1)NNc1cnccn1 + NC1CCC(NC2CC2c2ccccc2)CC1
- IC50 (second compound 0.1 µM): 4.66 nM
- IC50 (second compound 0.316 µM): < 3.16 nM
- IC50 (second compound 1 µM): 5.06 nM
- IC50 (second compound 3.16 µM): 4.22 nM
- IC50 (second compound 10 µM): 4.01 nM
- viability, T/C [31]: 55.5%
- viability, T/C [32]: 39.2%
- viability, T/C [1]: 19.9%
- viability, T/C [2]: 10.1%
- viability, T/C [3]: 6.81%
- viability, T/C [4]: 3.54%
- viability, T/C [33]: 49.3%
- viability, T/C [34]: 37.7%
- viability, T/C [7]: 19.9%
- viability, T/C [8]: 9.54%
- viability, T/C [9]: 6.12%
- viability, T/C [10]: 3.24%
- viability, T/C [35]: 56.9%
- viability, T/C [36]: 40%
- viability, T/C [13]: 22.6%
- viability, T/C [14]: 11.8%
- viability, T/C [15]: 5.1%
- viability, T/C [16]: 3.42%
- viability, T/C [37]: 53.8%
- viability, T/C [38]: 38.8%
- viability, T/C [19]: 22.6%
- viability, T/C [20]: 12%
- viability, T/C [21]: 6.8%
- viability, T/C [22]: 4.08%
- viability, T/C [39]: 53.4%
- viability, T/C [40]: 37.1%
- viability, T/C [25]: 25.7%
- viability, T/C [26]: 15.3%
- viability, T/C [27]: 7.05%
- viability, T/C [28]: 4.89%
